From paper PMC11609934, “Exploration and characterization of the antimalarial activity of cyclopropyl carboxamides that target the mitochondrial protein, cytochrome b” (European Journal of Medicinal Chemistry, 2024)
Converted amounts (≈) assume the structure as drawn. Like-named read-outs stand apart in the source and are kept apart here.

Assays:
[1] = system: W499-resistant populations; test: microbe, parasite or virus in culture; type: cell-based, Plasmodium falciparum; conditions: for EC50: Plasmodium falciparum
Description: (§1) To confirm if W466 (1) and W499 (2) may have the same molecular target, W466 (1) and W499 (2) were each evaluated for cross resistance against their respective resistant populations from the pulsed forward genetic study (Fig. 2).

Pf SB1-A6 strain = system: Pf SB1-A6 strain; design: method as in Nguyen, Dans et al. [8]; conditions: known drug controls; ref Nguyen, Dans et al. [8]; cited from earlier work
Pf Dd2 parental line = conditions: known drug controls; ref Nguyen, Dans et al. [8]; cited from earlier work
[2] = system: W466-resistant populations; test: 72 h growth assay against W466-resistant populations; type: cell-based, Plasmodium falciparum; conditions: Plasmodium falciparum
Description: To determine the mechanism of action of the cyclopropyl carboxamide series, a forward genetic resistance study was undertaken on the two hit compounds W466 (1) and W499 (2).
as §1, with “The structures of W466 (1) and W499 (2) are slightly different although they appear to belong to the same structural class. To” for “To”

[3] = system: Pf Dd2 expressing ScDHODH; design: method as in Nguyen, Dans et al. [8]; conditions: known drug controls; ref Nguyen, Dans et al. [8]; cited from earlier work
mitochondrial ETC = test: P. falciparum oxygen consumption rate (OCR) assay (Seahorse XFe96); type: cell-based, Plasmodium falciparum; conditions: compounds 5 μM
Method: To provide further evidence to support the cyclopropyl carboxamide series targeting cyt b, an oxygen consumption rate (OCR) assay was performed using a Seahorse XFe96 Flux Analyzer. The primary role of the mitochondria ETC is to produce ATP oxidative phosphorylation, and thus the oxygen consumption directly quantifies mitochondrial ETC activity. In this assay, malate, which is a substrate of malate quinone dehydrogenase (MQD), was added to provide a base line of oxygen consumption at approximately 50 pmol/min (Fig. 4). […] Finally, NaN3 was added to inhibit complex IV to bring the OCR back to basal levels.
Fig. 4 P. falciparum oxygen consumption rate (OCR) assay. Data represent the means and SDs of 3 technical replicates. Time points and reagent injections were as follows, 1. First 5 timepoints measured the basal level of malate-dependent OCR; 2. Compounds (5 μM) were injected independently (indicated by arrow), and OCR measured for 8-timepoints; 3. TMPD (a cytochrome c electron donor) was injected, and OCR measured for 5 time points; 4. NaN3 (a complex IV inhibitor) was then added, and OCR measured for 5 time points.
ETC Biosensor Assay. This assay was performed as previously described. Briefly, 3 × 10^8 trophozoite infected RBCs were purified using the SuperMACS II separator (Miltenyi Biotec, Germany). The trophozoite-stage parasites were released from erythrocytes by treating them with 0.05 % (w/v) pre-warmed saponin in phosphate-buffered saline (PBS) at 37 °C for 3 min. The cells were washed with pre-warmed PBS, three times. […] The cells were measured for oxygen consumption rate (OCR) using Seahorse XFe96 flux analyzer (Agilent). The OCR was assessed for five cycles of 20 s mixing, 1 min waiting, 2.5 min measuring to establish baseline OCR before any substrate injections, for eight cycles of 20 s mixing, 1 min waiting followed by 2.5 min measuring after inhibitor injection from port A and for five cycles of 20 s mixing 1 min waiting, 2.5 min measuring after TMPD, and NaN3, injections.

[4] = system: P. falciparum 3D7 parasites; test: P. falciparum 3D7 asexual stage LDH assay (72 h); type: cell-based, Plasmodium falciparum; conditions: Plasmodium falciparum, read-out: Pf 3D7 EC50 (SD)
How it was run: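 Asexual P. falciparum 3D7 parasites were grown for 72 h over a 10-point, 3-fold series starting at 1 μM in 0.1% DMSO, with 100 nM chloroquine as negative growth control. After freeze-thaw, parasite LDH was read at 650 nm, and EC50 came from a variable-slope sigmoidal fit.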

[5] = system: ring-stage P. falciparum parasites; test: Asexual stage of arrest assay; type: cell-based, Plasmodium falciparum; conditions: 10 times EC50, sampled every 12 h for 48 h
Method: Characterization of asexual stage phenotype and rate of asexual kill is important in determining the downstream application and TCP of an antimalarial series. […] Parasites were sampled every 12 h for 48 h, to prepare Giemsa-stained blood smears for analysis by microscopy. Parasitemia of each sample was measured by flow cytometry using SYBR-Green DNA staining.
Asexual Stage of Arrest Assay. This assay was conducted as previously described.

[6] = Human HepG2 growth inhibition assay (Cell TitreGlo, 48 h); type: cell-based; conditions: human, HepG2 cells, HepG2 cell growth inhibition over 48 h
How it was run: (§2)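 HepG2 cells (1000/well, DMEM + 10% FCS) exposed 48 h at 37 °C, 5% CO2 to compound from 50 μM top concentration in 1:2 dilutions, 0.5% DMSO final. Viability read by Cell Titer Glo, normalised to DMSO and 10 μM bortezomib; EC50 by four-parameter variable-slope fit.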

[7] = eLogD (shake-flask, pH 7.4); type: physicochemical; conditions: 1-octanol/phosphate buffered saline (1:1, v/v), Shake-flask method
Method: eLogD. The LogD (pH 7.4) assay was performed using a miniaturized shake flask method. A solution of a pre-saturated mixture of 1-octanol and phosphate buffered saline (PBS) (1:1, v/v) and the test compound (75 μM) was incubated at 25 °C with constant shaking (850 rpm) for 2 h. After incubation the organic and aqueous phases were separated, and samples of each phase transferred to plate for dilution. The organic phase was diluted to 1000-fold and the aqueous phase was diluted 20-fold. The samples were quantitated using LC-MS/MS. The experiment was carried out in duplicate. Propranolol, amitriptyline, and midazolam were used as reference standards.

male gamete = test: Dual gamete formation assay, male gametes; type: cell-based; conditions: Plasmodium falciparum; NF54 parasites in a DGFA, 4 replicates
Method: (§3) To determine whether the cyclopropyl carboxamide class has transmission blocking potential we profiled selected analogs in a dual gamete formation assay. In this assay, stage V gametocytes are treated with compound, and gametogenesis is induced by the addition of xanthurenic acid. Male gamete viability is determined by an imaging algorithm measuring motile flagellation, while female viability is measured using an antibody to the female-specific Pfs25 surface marker. […] Collectively, the activity observed against male gametes is consistent with activity observed with other cyt b inhibitors.
(§4) Dual Gamete Formation Assay. Compounds were evaluated as previously described as a platform run at both Imperial College London and the London School of Hygiene and Tropical Medicine. Briefly, mature stage V gametocytes were exposed to compounds for 48 h at 37 °C in 384 well plates in gametocyte culture medium (RPMI 1640 supplemented with 25 mM HEPES, 50 μg/mL hypoxanthine, 4.8 g/L NaHCO3, 2 mM L-glutamine, 5 % pooled type AB serum, 0.5 % Albumax II (Gibco)) under a 1 % O2/3 % CO2/96 % N2 environment. Gametogenesis was then triggered by the addition of 10 μL ookinete medium (gametocyte culture medium supplemented with 100 μM xanthurenic acid and 0.27 μg/mL Cy3-labelled anti-Pfs25 antibody) to each well at room temperature. Plates were then cooled on a metal block at 4 °C for 4 min to ensure even cooling and then stabilized for a further 4 min at 28 °C. At 20 min post-induction, male gametogenesis was recorded in each well by automated brightfield microscopy using a × 4 objective lens and 1.5 × magnifier ( × 6 effective magnification). Afterward, plates were incubated in the dark at room temperature for 24 h and then female gametogenesis recorded in each well by automated fluorescence microscopy (anti-Pfs25-positive cells). […] All data was evaluated in comparison to the positive and negative controls to calculate percentage inhibition of male and female gametocytes, and dose response analysis and EC50 calculation performed using GraphPad Prism.

female gamete = test: Dual gamete formation assay, female gametes; type: cell-based; conditions: Plasmodium falciparum; NF54 parasites in a DGFA, 4 replicates
Method: as §3, §4

[8] = Aqueous solubility (kinetic in PBS, pH 7.4); type: physicochemical; conditions: phosphate buffered saline
Method: Solubility. The solubility assay was performed using a miniaturized shake flask method. A solution of phosphate buffered saline (PBS) and the test compound (200 μM) was incubated at 25 °C with constant shaking (600 rpm) for 2 h. The samples were filtered using a multiscreen solubility filter plate. The filtrate was half diluted in acetonitrile. A five-point linearity curve was prepared in PBS:acetonitrile (1:1, v/v) at 200, 150, 75, 25 and 2.5 μM. Blank, linearity and test samples (n = 2) were transferred to a UV readable plate and the plate was scanned for absorbance. Best fit calibration curves were constructed using the calibration standards and used to determine the test sample solubility. The experiment was carried out in duplicate. Diethylstilbestrol, haloperidol, and diclofenac sodium were used as reference standards.

Rat hepatocyte stability = type: in vitro ADME; conditions: pooled rat hepatocytes
Method: Rat Hepatocyte Stability. A solution of the test compound in Krebs-Henseliet buffer solution (1 μM) was incubated in pooled rat hepatocytes (1 × 10^6 cells/mL) for 0, 15,30,45, 60, 75 and 90 min at 37 °C (5 % CO2, 95 % relative humidity). The reaction was terminated with the addition of ice-cold acetonitrile containing system suitability standard at designated time points. […] The experiment was carried out in duplicate. Diltiazem, 7-ethoxy coumarin, propranolol, and midazolam were used as reference standards.

[9] = Human liver microsome stability; type: in vitro ADME; conditions: pooled human liver microsomes
Method: Human Liver Microsome Stability. A solution of the test compounds in phosphate buffer solution (1 μM) was incubated in pooled human liver microsomes (0.5 mg/mL) for 0, 5, 20, 30, 45 and 60 min at 37 °C in the presence and absence of NADPH regeneration system. The reaction was terminated with the addition of ice-cold acetonitrile containing system suitability standard at designated time points. […] The experiment was carried out in duplicate. Verapamil, diltiazem, phenacetin, and imipramine were used as reference standards.

human HepG2 cell line = test: Human HepG2 growth inhibition assay (Cell TitreGlo, 48 h); type: cell-based; conditions: HepG2 cell growth inhibition over 48 h
How it was run: as §2

[10] = DSM265, read-out: W499-resistant populations EC50 (SD) #2
[11] = DSM265, read-out: W499-resistant populations EC50 (SD) #3
[12] = read-out: W466-resistant populations EC50 (SD) #1
[13] = read-out: W466-resistant populations EC50 (SD) #2
[14] = read-out: W466-resistant populations EC50 (SD) #3
[15] = 3D7 / DSM 265, parent 3D7 for resistant populations, LDH assay, 3 experiments (SYBR-green for DSM265)
[16] = 3D7, 72 h, LDH activity of P. falciparum 3D7 parasites over 72 h, means and SDs, three or more experiments

O=C1C(O)=C([C@H]2CC[C@H](c3ccc(Cl)cc3)CC2)C(=O)c2ccccc21 [ATQ, atovaquone]
EC50 [1, 10]: 4 nM | EC50 [1, 11]: 3 nM | EC50 (Pf SB1-A6 strain): > 10000 nM | EC50 (Pf Dd2 parental line): 1 nM | EC50 ([2]; read-out: EC50 against W466-resistant parasites): 1 nM | EC50 [2, 12]: 2 nM | EC50 [2, 13]: 1 nM | EC50 [2, 14]: 1 nM | EC50 [3]: > 10000 nM | effect on malate-dependent oxygen consumption rate (OCR) (mitochondrial ETC): an OCR reduction was detected | EC50 [4, 15]: 1 nM | asexual stage of arrest [5]: arrest at the trophozoite stage

CCCN(Cc1ccc(C(=O)NC2CC2)cc1)Cc1ccc(C(C)(C)C)cc1 [Compound 107, 4-(((4-(tert-Butyl)benzyl) (propyl)amino)methyl)-N-cyclopropylbenzamide]
CC50 at 48 h [6]: > 40000 nM | logD at 2 h [7]: 4.9 | EC50 (male gamete): 80 nM | EC50 (female gamete): 21600 nM | solubility at 2 h [8]: 10 µM (≈ 3.79 µg/mL) | hepatocyte CLint at 1.5 h, 1 µM (Rat hepatocyte stability): 92 µL/min/1e6 cells | microsomal CLint at 1 h, 1 µM [9]: 263 µL/min/mg | EC50 [4, 16]: 20 nM

CCCN(Cc1ccc(C(=O)NC2CC2)cc1)Cc1c(C)cc(C)cc1C [Compound 110, N-Cyclopropyl-4-((propyl(2,4,6-trimethylbenzyl)amino)methyl)benzamide]
CC50 at 48 h [6]: > 40000 nM | EC50 (male gamete): 280 nM | EC50 (female gamete): > 25000 nM | EC50 [4, 16]: 80 nM

Cc1cc(Nc2ccc(S(F)(F)(F)(F)F)cc2)n2nc(C(C)(F)F)nc2n1 [DSM265]
fold shift in EC50 against W499-resistant populations compared to wildtype 3D7 [1]: > 10 fold | EC50 [1, 10]: > 1000 nM | EC50 [1, 11]: > 1000 nM | EC50 ([1]; read-out: EC50 against W499-resistant parasites): > 1000 nM | EC50 (Pf SB1-A6 strain): > 10000 nM | EC50 (Pf Dd2 parental line): 24 nM | EC50 [2, 12]: 19 nM | EC50 [2, 13]: 13 nM | EC50 [2, 14]: 13 nM | EC50 [3]: > 10000 nM | effect on malate-dependent oxygen consumption rate (OCR) (mitochondrial ETC): didn't change the basal OCR | EC50 [4, 15]: 53 nM

N-Cyclopropyl-4-((cyclopropyl(3,4-dimethylbenzyl)amino)methyl)benzamide [Compound 79]
CC50 (human HepG2 cell line): > 40000 nM
